# Data published in ChEMBL document CHEMBL4251650, “Design and synthesis of 2-(4,5,6,7-tetrahydrothienopyridin-2-yl)-benzoimidazole carboxamides as novel orally efficacious Poly(ADP-ribose)polymerase (PARP) inhibitors” (Eur J Med Chem, 2018).
# How the values were obtained:
# [1] = Solubility of the compound in pH 7 solution; type: physicochemical
# [2] = Solubility of the compound in pH 7.4 solution; type: physicochemical
# [3] = Intrinsic clearance in mouse liver microsomes; type: ADME, microsome; settings: read-out: CLH
# [4] = Intrinsic clearance in human liver microsomes; type: ADME, microsome; settings: read-out: CLH
# [5] = Solubility of the compound in pH 6.8 solution; type: physicochemical
# [6] = Intrinsic clearance in rat liver microsomes; type: ADME, microsome; settings: read-out: CLH
# [7] = Permeability across apical to basolateral side in human Caco2 cells; type: ADME, cell-based; settings: Caco-2, read-out: permeability
# [8] = Half life in Sprague-Dawley rat at 5 mg/kg, iv administered as single dose by LC-MS/MS analysis; type: ADME, organism-based; settings: in vivo
# [9] = Tmax in Sprague-Dawley rat at 10 mg/kg, po administered as single dose by LC-MS/MS analysis; type: ADME, organism-based; settings: in vivo
# [10] = Volume of distribution at steady state in Sprague-Dawley rat at 5 mg/kg, iv administered as single dose by LC-MS/MS analysis; type: ADME, organism-based; settings: in vivo, read-out: Vdss
# [11] = AUC (0 to infinity) in Sprague-Dawley rat at 10 mg/kg, po administered as single dose by LC-MS/MS analysis; type: ADME, organism-based; design: dose 10 mg/kg, time infinity, route oral; settings: in vivo
# [12] = Clearance in Sprague-Dawley rat at 5 mg/kg, iv administered as single dose by LC-MS/MS analysis; type: ADME, organism-based; settings: in vivo
# [13] = Oral bioavailability in Sprague-Dawley rat at 10 mg/kg administered as single dose by LC-MS/MS analysis; type: ADME, organism-based; settings: in vivo
# [14] = Cmax in Sprague-Dawley rat at 10 mg/kg, po administered as single dose by LC-MS/MS analysis; type: ADME, organism-based; design: dose 10 mg/kg, route oral; settings: in vivo
Compound,solubility [1],solubility [2],microsomal CLint [3],microsomal CLint [4],solubility [5],microsomal CLint [6],Papp A→B [7],half-life [8],Tmax [9],Vd [10],AUC(0-inf) [11],clearance [12],bioavailability [13],Cmax [14]
NC(=O)c1cc(F)cc2[nH]c(-c3cc4c(s3)CNCC4)nc12,> 50 µM,> 50 µM,123 µL/min/mg,23 µL/min/mg,> 50 µM,340 µL/min/mg,0.2 ×10⁻⁶ cm/s,–,–,–,–,–,–,–
Cn1c(-c2cc3c(s2)CNCC3)nc2c(C(N)=O)cc(F)cc21,> 50 µM,> 50 µM,75 µL/min/mg,28 µL/min/mg,> 50 µM,196 µL/min/mg,2.65 ×10⁻⁶ cm/s,–,–,–,–,–,–,–
Cl.Cn1c(-c2cc3c(s2)CNCC3)nc2c(C(N)=O)cc(F)cc21,–,–,–,–,–,–,–,0.89 h,2.25 h,13.2 L/kg,245 ng·h/mL,194 mL/min/kg,26%,61.2 ng/mL
